# Experimental data taken from US20110294722A1, “ANTIMICROBIAL PEPTIDES” (priority 2008, published 2011).
# Like-named read-outs stand apart in the source and are kept apart here. No end group written: not given here.
# Assays:
# Botrytis cinerea = assay: In-vitro inhibition assay (MIC), Example 2; assay type: cell-based; conditions: visual screening
# Protocol: (§1) In-vitro inhibition assays were performed in sterile flat-bottom 96-well plates (Greiner bio-one, Frickenhausen). Antimicrobial peptides were dissolved in 0.01% acetic acid containing 0.2% BSA (500 μg/ml), filter sterilized and stored at −20° C. For inhibition assays dilutions of peptides ranging from 5 to 200 μg/ml were prepared and 10 μl (antibacterial assay) or 20 μl (antifungal assay) of each concentration was loaded per well.
# (§2) Spores of fungi were collected by water washes of sporulating cultures grown on 2% malt extract agar and spore concentration was determined by microscopy. The concentration of the spores was adjusted to 1.5-2×10^3 spores/ml in 2% malt extract medium and 80 μl of fungal spores were added per well. The final peptide concentrations used in the fungal inhibition assays were […]. After overnight incubation at room temperature the plate were put on a rotary shaker (300 rpm) for further two days to ensure consistantly growth. Antifungal effects of the peptides were determined by a microplate reader (Alternaria, Fusarium) at OD590 nm or by visual screening of the plates (Botrytis, Cladosporium).
# (§3) The lowest peptide concentration leading to complete inhibition of bacterial growth or spore germination/mycelial growth (minimal inhibition concentration, MIC) was determined for each organism-peptide combination. For each peptide concentration two identical inhibition assays were performed.
# Cladosporium herbarum = assay: In-vitro inhibition assay (MIC), Example 2; assay type: cell-based; conditions: visual screening
# Protocol: as §1, §2, §3
# Alternaria alternata = assay: In-vitro inhibition assay (MIC), Example 2; assay type: cell-based; conditions: OD590 nm
# Protocol: as §1, §2, §3
# [1] = system: Clavibacter michiganensis sub. michiganensis; conditions: overnight 25° C.
# [2] = system: Pseudomonas syringae pv. syringae
# Xanthomonas vesicatoria [3] = system: Xanthomonas vesicatoria
# [4] = system: Pectobacterium carotovorum sub. carotovorum
# Pseudomonas corrugata [5] = system: Pseudomonas corrugata
# [6] = system: Pseudomonas syringae pv. tomato
# phytopathogenic fungi = assay: Antifungal inhibition assay, summary statement; assay type: cell-based; conditions: summary of Table 1
# Protocol: as §1, §2
# The lowest peptide concentration leading to complete inhibition of bacterial growth or spore germination/mycelial growth (minimal inhibition concentration, MIC) was determined for each organism-peptide combination. […]
# [7] = system: Pseudomonas syringae pv. tomato; assay type: cell-based; conditions: for LC (lethal concentration, 100% inhibition): at least 4 days of incubation
# Protocol: as §1, with “20” for “20 μl”
# (§4) Bacteria colonies from overnight agar plate cultures were resuspended into 5 ml LB-medium or HPG-medium (OD600 nm=0.08-0.1) and diluted into LB-medium/HPG-medium (1:100). 90 μl of this suspension containing about 10^5-10^6 CFU/ml of tested bacteria were added to each well resulting in final peptide concentrations of 0, 0.5, 1, 2, 5, 10, and 20 μg/ml. […] The lowest concentration, in which there is no observable growth (>90% inhibition) is referred to as minimal inhibitory concentration (MIC). […] For each peptide concentration two identical inhibition assays were performed.
# Pseudomonas corrugata [8] = assay type: cell-based; conditions: for LC (lethal concentration, 100% inhibition): at least 4 days of incubation
# Protocol: as §1, with “20” for “20 μl”
# as §4
# [9] = system: Pectobacterium carotovorum; assay type: cell-based; conditions: for LC (lethal concentration, 100% inhibition): at least 4 days of incubation
# Protocol: as §1, with “20” for “20 μl”
# as §4
# [10] = system: Pseudomonas syringae pv. syringae; assay type: cell-based; conditions: for LC (lethal concentration, 100% inhibition): at least 4 days of incubation
# Protocol: as §1, with “20” for “20 μl”
# as §4
# Xanthomonas vesicatoria [11] = assay: In-vitro inhibition assay (MIC and LC), Example 3; assay type: cell-based; conditions: for MIC (>90% inhibition): 1-2 days at 25° C.; for LC (lethal concentration, 100% inhibition): at least 4 days of incubation
# Protocol: as §1, with “20” for “20 μl”
# as §4
# [12] = system: Clavibacter michiganensis; assay: In-vitro inhibition assay (MIC and LC), Example 3; assay type: cell-based; conditions: for MIC (>90% inhibition): 1-2 days at 25° C.; for LC (lethal concentration, 100% inhibition): at least 4 days of incubation
# Protocol: as §1, with “20” for “20 μl”
# as §4
# [13] = Pseudomonas syringae pv. tomato
# [14] = Pseudomonas syringae pv. syringae
# [15] = Pseudomonas syringae pv. tomato, 1-2 days at 25° C.
# [16] = Pseudomonas corrugata, 1-2 days at 25° C.
# [17] = Pectobacterium carotovorum, 1-2 days at 25° C.
# [18] = Pseudomonas syringae pv. syringae, 1-2 days at 25° C.
substance,measurement,setting,value
"SP1-D: Polypeptide SP1 (RKKRLKLLKRLV) with D-amino acids incorporated; D positions marked bold/italic in b61, not recoverable (also: D-amino acids at unstated positions)",Minimal inhibition concentration (MIC) for complete inhibition of spore germination/mycelial growth,Botrytis cinerea,>40 µg/mL
same,Minimal inhibition concentration (MIC) for complete inhibition of spore germination/mycelial growth,Cladosporium herbarum,20 µg/mL
same,Minimal inhibition concentration (MIC) for complete inhibition of spore germination/mycelial growth,Alternaria alternata,20 µg/mL
same,Minimal inhibition concentration (MIC) for complete inhibition of bacterial growth,[1],40 µg/mL
same,Minimal inhibition concentration (MIC) for complete inhibition of bacterial growth,"[2]; Pseudomonas syringae pv. syringae, overnight 25° C.",5 µg/mL
same,Minimal inhibition concentration (MIC) for complete inhibition of bacterial growth,"Xanthomonas vesicatoria [3]; Xanthomonas vesicatoria, overnight 25° C.",40 µg/mL
same,Minimal inhibition concentration (MIC) for complete inhibition of bacterial growth,"[4]; Pectobacterium carotovorum sub. carotovorum, overnight 25° C.",>40 µg/mL
same,Minimal inhibition concentration (MIC) for complete inhibition of bacterial growth,"Pseudomonas corrugata [5]; Pseudomonas corrugata, overnight 25° C.",20 µg/mL
same,Minimal inhibition concentration (MIC) for complete inhibition of bacterial growth,"[6]; Pseudomonas syringae pv. tomato, overnight 25° C.",5 µg/mL
same,Efficacy against phytopathogenic fungi,phytopathogenic fungi,high efficacy against phytopathogenic fungi
RKKRLKLLKRLV-NH2 [SP1],Minimal inhibition concentration (MIC) for complete inhibition of spore germination/mycelial growth,Botrytis cinerea,>100 µg/mL
same,Minimal inhibition concentration (MIC) for complete inhibition of spore germination/mycelial growth,Cladosporium herbarum,10 µg/mL
same,Minimal inhibition concentration (MIC) for complete inhibition of spore germination/mycelial growth,Alternaria alternata,>100 µg/mL
same,Minimal inhibition concentration (MIC) for complete inhibition of bacterial growth,[1],1 µg/mL
same,Minimal inhibition concentration (MIC) for complete inhibition of bacterial growth,[2],2 µg/mL
same,MIC (>90% inhibition),[7],10/10 μg/ml
same,"LC (lethal concentration, 100% inhibition)",[7]; [13],10/10 μg/ml
same,MIC (>90% inhibition),Pseudomonas corrugata [8],0.5 µg/mL
same,"LC (lethal concentration, 100% inhibition)",Pseudomonas corrugata [8]; Pseudomonas corrugata,1.0 µg/mL
same,MIC (>90% inhibition),[9],>10/>10 μg/ml
same,"LC (lethal concentration, 100% inhibition)",[9]; Pectobacterium carotovorum,>10/>10 μg/ml
same,MIC (>90% inhibition),[10],0.1 µg/mL
same,"LC (lethal concentration, 100% inhibition)",[10]; [14],0.5 µg/mL
same,Minimal inhibition concentration (MIC) for complete inhibition of bacterial growth,Xanthomonas vesicatoria [3],2 µg/mL
same,Minimal inhibition concentration (MIC) for complete inhibition of bacterial growth,[4],>40 µg/mL
same,Minimal inhibition concentration (MIC) for complete inhibition of bacterial growth,Pseudomonas corrugata [5],2 µg/mL
same,Minimal inhibition concentration (MIC) for complete inhibition of bacterial growth,[6],1 µg/mL
same,MIC (>90% inhibition),Xanthomonas vesicatoria [11],0.5 µg/mL
same,"LC (lethal concentration, 100% inhibition)",Xanthomonas vesicatoria [11],1.0 µg/mL
same,MIC (>90% inhibition),[12],5.0/5.0 μg/ml
same,"LC (lethal concentration, 100% inhibition)",[12],5.0/5.0 μg/ml
RKRAARLLKRLV-NH2 [Sp2],Minimal inhibition concentration (MIC) for complete inhibition of spore germination/mycelial growth,Botrytis cinerea,>100 µg/mL
same,Minimal inhibition concentration (MIC) for complete inhibition of spore germination/mycelial growth,Cladosporium herbarum,20 µg/mL
same,Minimal inhibition concentration (MIC) for complete inhibition of spore germination/mycelial growth,Alternaria alternata,>100 µg/mL
"KKKAARALKRAL-NH2 [Sp4, KKKAARALKRAL]",Minimal inhibition concentration (MIC) for complete inhibition of spore germination/mycelial growth,Botrytis cinerea,>100 µg/mL
same,Minimal inhibition concentration (MIC) for complete inhibition of spore germination/mycelial growth,Cladosporium herbarum,40 µg/mL
same,Minimal inhibition concentration (MIC) for complete inhibition of spore germination/mycelial growth,Alternaria alternata,>100 µg/mL
RKRFARFAKRAV-NH2 [Sp3],Minimal inhibition concentration (MIC) for complete inhibition of spore germination/mycelial growth,Botrytis cinerea,>100 µg/mL
same,Minimal inhibition concentration (MIC) for complete inhibition of spore germination/mycelial growth,Cladosporium herbarum,40 µg/mL
same,Minimal inhibition concentration (MIC) for complete inhibition of spore germination/mycelial growth,Alternaria alternata,>100 µg/mL
KRKKLLKRLL-NH2 [SP1-15],MIC (>90% inhibition),[7]; [15],1.0/1.0 μg/ml
same,"LC (lethal concentration, 100% inhibition)",[7]; [13],1.0/1.0 μg/ml
same,MIC (>90% inhibition),Pseudomonas corrugata [8]; [16],<0.1/<0.1 μg/ml
same,"LC (lethal concentration, 100% inhibition)",Pseudomonas corrugata [8]; Pseudomonas corrugata,<0.1/<0.1 μg/ml
same,MIC (>90% inhibition),[9]; [17],>10/>10 μg/ml
same,"LC (lethal concentration, 100% inhibition)",[9]; Pectobacterium carotovorum,>10/>10 μg/ml
same,MIC (>90% inhibition),[10]; [18],0.1 µg/mL
same,"LC (lethal concentration, 100% inhibition)",[10]; [14],1.0 µg/mL
same,MIC (>90% inhibition),Xanthomonas vesicatoria [11],5.0/5.0 μg/ml
same,"LC (lethal concentration, 100% inhibition)",Xanthomonas vesicatoria [11],5.0/5.0 μg/ml
same,MIC (>90% inhibition),[12],5.0/5.0 μg/ml
same,"LC (lethal concentration, 100% inhibition)",[12],5.0/5.0 μg/ml
RKKKFKIFKRLF-NH2 [SP1-14],MIC (>90% inhibition),[7],1.0 to 5.0 µg/mL
same,MIC (>90% inhibition),Pseudomonas corrugata [8]; [16],0.5 µg/mL
same,"LC (lethal concentration, 100% inhibition)",Pseudomonas corrugata [8]; Pseudomonas corrugata,1.0 µg/mL
same,MIC (>90% inhibition),[9]; [17],>10/>10 μg/ml
same,"LC (lethal concentration, 100% inhibition)",[9]; Pectobacterium carotovorum,>10/>10 μg/ml
same,MIC (>90% inhibition),[10]; [18],< 0.1 µg/mL
same,"LC (lethal concentration, 100% inhibition)",[10]; [14],0.5 µg/mL
same,MIC (>90% inhibition),Xanthomonas vesicatoria [11],1.0 µg/mL
same,"LC (lethal concentration, 100% inhibition)",Xanthomonas vesicatoria [11],2.5 µg/mL
same,MIC (>90% inhibition),[12],1.0 µg/mL
same,"LC (lethal concentration, 100% inhibition)",[12],2.5 µg/mL
RKKKLKFFKRLF-NH2 [Sp1-11],MIC (>90% inhibition),[7]; [15],>10/>10 μg/ml
same,"LC (lethal concentration, 100% inhibition)",[7]; [13],>10/>10 μg/ml
same,MIC (>90% inhibition),Pseudomonas corrugata [8]; [16],0.25 µg/mL
same,"LC (lethal concentration, 100% inhibition)",Pseudomonas corrugata [8]; Pseudomonas corrugata,1.0 µg/mL
same,MIC (>90% inhibition),[9]; [17],>10/>10 μg/ml
same,"LC (lethal concentration, 100% inhibition)",[9]; Pectobacterium carotovorum,>10/>10 μg/ml
same,MIC (>90% inhibition),[10]; [18],1.0 µg/mL
same,"LC (lethal concentration, 100% inhibition)",[10]; [14],2.5 µg/mL
same,MIC (>90% inhibition),Xanthomonas vesicatoria [11],2.5 µg/mL
same,"LC (lethal concentration, 100% inhibition)",Xanthomonas vesicatoria [11],10 µg/mL
same,MIC (>90% inhibition),[12],2.5 µg/mL
same,"LC (lethal concentration, 100% inhibition)",[12],5.0 µg/mL
